{"source": "paper PMC3925085", "about": "“Subditine, a New Monoterpenoid Indole Alkaloid from Bark of Nauclea subdita (Korth.) Steud. Induces Apoptosis in Human Prostate Cancer Cells” (PLoS ONE, 2014)", "key": {"caspase-9 in LNCaP cells": {"system": "caspase-9 in LNCaP cells", "assay": "Caspase-Glo 9 bioluminescent assay, LNCaP", "assay_type": "cell-based, human", "description": "(§1) A time-dependent study of caspase-3/7, -8, and -9 activities was performed in triplicates using assay kits Caspase-Glo 3/7, 8, and 9 (Promega Corp.,Madison,WI, USA) on white 96-well microplate as described previously. A total of 10,000 cells per well was seeded and treated with […] of subditine (1) for 6, 12, 18, 24, and 30 hours. Then, 100 µL of the caspase-Glo reagent was added, incubated at room temperature for 30 minutes and measured using Tecan Infinite 200 Pro (Tecan, Mannedorf, Swizerland) microplate reader."}, "[1]": {"system": "Bcl-xL expression in LNCaP cells", "assay": "Western blotting, Bcl-xL in LNCaP", "assay_type": "cell-based, human", "settings": "24 h", "description": "(§2) To determine protein expression, 1×10^6 cells/mL were seeded and treated with subditine (1) or paclitaxel for 24 h. Whole cell extracts were prepared as previously described. Briefly, cells were collected, lysed and resolved on 10% SDS-polyacrylamide gels. After electrophoresis, the proteins were transferred to PVDF membranes (Millipore), blocked with 5% nonfat dry milk in PBS-T (0.05% Tween 20) for 1 hour at room temperature. Membranes were probed with primary rabbit anti-Bcl-2, Bcl-xL or p53 antibodies followed by horseradish peroxidase (HRP)-conjugated secondary anti-rabbit antibody (Cell Signaling Technology Inc., CA, USA). Membranes were stripped and reprobed with mouse anti-β-actin antibody as loading control (Santa Cruz Biotechnology Inc.). Protein-antibody complexes were detected with Amersham ECL prime Western blotting detection reagent (GE Healthcare, USA)."}, "[2]": {"system": "Bcl-2 expression in PC-3 cells", "assay": "Western blotting, Bcl-2 in PC-3", "assay_type": "cell-based, human", "settings": "24 h", "description": "as §2"}, "[3]": {"system": "glutathione reductase (GR) gene expression in LNCaP cells", "assay": "Oxidative stress and antioxidant defense qPCR-array, LNCaP", "assay_type": "cell-based, human", "settings": "12.5 µM, 18 h, relative to control cells", "description": "LNCaP and PC-3 cells were treated with subditine (1) (12.5 µM) for 18 h. RNA was extracted from PC-3 or LNCaP cells using RNeasy plus mini kit (Qiagen). 1 µg of RNA was reverse transcribed into cDNA using the RT2 first strand kit (SA Biosciences, Qiagen).cDNA was mixed with RT2 Real Time™ SYBR Green/fluorescein PCR master-mix and loaded into each 96 wells of the Human Oxidative Stress and Antioxidant Defense qPCR array according to the manufacturer’s protocol (SA Biosciences, Qiagen). Briefly, a total volume of 25 µl of PCR mixture, which included 12.5 µl of mastermix, 11.5 µl of double distilled water, and 1 µl of cDNA was loaded into each of the 96wells. qPCR were done using StepOne PLUS real-time PCR machine (Applied Biosystems). PCR amplification was conducted at 95°C for 10 min, followed by 40 cycles of 95°C for 15 sec and 60°C for 1 min. The mRNA expression for each gene was normalized using the average expression of five housekeeping genes:\nβ-actin (ACTB), β-2-microglobulin (β2M), hypoxanthine phosphoribosyltransferase 1 (HPRT1), ribosomal protein L13a (RPL13A) and glyceraldehyde-3-phosphate dehydrogenase (GAPDH). The ΔΔCt method was used for data analysis. Fold changes were calculated for each gene as the difference in gene expression between subditine (1) or non-treated control using the RT Profiler qPCR-array data analysis software."}, "caspase-9 in PC-3 cells": {"system": "caspase-9 in PC-3 cells", "assay": "Caspase-Glo 9 bioluminescent assay, PC-3", "assay_type": "cell-based, human", "description": "as §1"}, "PC-3 cells": {"system": "PC-3 cells", "assay": "Cellomics multiparameter cytotoxicity assay, PC-3", "assay_type": "cell-based, human", "description": "Cytotoxicity 3 kit (Thermo Scientific) was used as described previously. Briefly, 24 hours after subditine (1) treatment, MMP dye and the cell permeability dye were added to live cells and incubated for 30 minutes at 37°C. Cells were fixed, permeabilized, blocked with 1x blocking buffer before probing with primary cytochrome c and secondary DyLight 649 conjugated goat anti-mouse IgG antibodies for 1 hour each. Hoechst 33342 was added into the staining solution. Plates were then analyzed using the ArrayScan high content screening (HCS) system (Cellomics, PA, USA). Data were captured, extracted and analyzed with ArrayScan II Data Acquisition and Data Viewer version 3.0."}, "[4]": {"system": "p53 expression in LNCaP cells", "assay": "Western blotting, p53 in LNCaP", "assay_type": "cell-based, human", "settings": "LNCaP (p53-wild-type), 24 h", "description": "as §2"}, "caspase-8 in LNCaP cells": {"system": "caspase-8 in LNCaP cells", "assay": "Caspase-Glo 8 bioluminescent assay, LNCaP", "assay_type": "cell-based, human", "settings": "12.5 µM, throughout 30 hours", "description": "as §1"}, "[5]": {"system": "LNCaP human prostate cancer cells", "assay": "MTT cell proliferation assay, LNCaP", "assay_type": "cell-based", "description": "Human prostate normal cell line (RWPE-1) and human prostate cancer cell lines; LNCaP and PC-3, were purchased from the American Type Culture Collection (ATCC, Manassas, Virginia, USA). LNCaP and PC-3 cells were grown in Roswell Park Memorial Institute medium (RPMI) supplemented with 10% heat-inactivated fetal bovine serum (FBS, Sigma-Aldrich, St. Louis, MO), 1% penicillin and streptomycin. RWPE-1 cells were maintained in Keratinocyte Serum Free Medium (K-SFM, ATCC) supplemented with bovine pituitary extract (BPE) and human recombinant epidermal growth factor (EGF). Mediums were supplemented with 10% heat-inactivated fetal calf serum (Sigma.), 100 U/ml penicillin and […] streptomycin (Flowlab, Sydney, Australia). All cells were maintained in a humidified atmosphere of 5% CO2 in air at 37°C incubator.\nThe anti-proliferative activity was evaluated by performing MTT assays as previously described with minor modifications. Briefly, cells were seeded 24 hours prior to treatment in a 96-well plate at 5×10^4 cells/well in order to obtain 70% to 80% confluent cultures. The compounds were dissolved in DMSO (Sigma Chemical Co., St. Louis, Missouri, USA) followed by a 2×serial dilution for 10 points ranged from 0.825 µM to 100 µM. The 96-well plate was incubated for 24 hours at 37°C in a humidified atmosphere with 5% CO2. At the end of incubation, 50 µl of MTT solution (2 mg/ml; Sigma) was added to each well. The plate was then incubated for 4 hours. All medium was removed and the purple formazan crystal formed at the bottom of the wells was dissolved with 200 µl DMSO for 20 minutes. The absorbance at 570 nm was read on a spectrophotometric plate reader (Hidex). The proportion of surviving cells was calculated as: […]\nDose-response curves were constructed to obtain the IC50 values. Experimental data were derived from 3 independent experiments. The selectivity index was obtained by mean IC50 RWPE-1/mean IC50 of LNCaP or PC-3."}, "[6]": {"settings": "PC-3, 24 h, compared to control"}}, "data": [{"compound": "Cc1ncc2c(=O)n3c(cc2c1C=O)-c1[nH]c2ccccc2c1CC3", "note": "[Subditine, subditine]", "values": [{"measurement": "caspase-9 activity", "setting": "caspase-9 in LNCaP cells; after 12 and 24 hours exposure, 12.25 µM", "value": "significant increase"}, {"measurement": "time of highest caspase-9 activity", "setting": "caspase-9 in LNCaP cells; time points 6-30 hours", "value": 24, "unit": "h"}, {"measurement": "Bcl-xL expression", "setting": "[1]", "value": "down-regulation"}, {"measurement": "Bcl-2 protein expression", "setting": "[2]; PC-3, 12.5 µM, compared to control", "value": "no significant change"}, {"measurement": "Bcl-2 protein expression", "setting": "[2]; PC-3, 25 and 50 µM", "value": "drastically down-regulated"}, {"measurement": "glutathione reductase (GR) gene expression fold change", "setting": "[3]", "value": "> 100", "unit": "fold"}, {"measurement": "caspase-9 activity", "setting": "caspase-9 in PC-3 cells; PC-3, after 12 and 24 hours exposure, 12.25 µM", "value": "significant increase"}, {"measurement": "time of highest caspase-9 activity", "setting": "caspase-9 in PC-3 cells; PC-3, time points 6-30 hours", "value": 24, "unit": "h"}, {"measurement": "cytochrome c release (cytosolic staining)", "setting": "PC-3 cells; [6]", "value": "increased fluorescent-staining in the cytosol"}, {"measurement": "membrane permeability", "setting": "PC-3 cells; [6]", "value": "higher membrane permeability"}, {"measurement": "mitochondrial membrane potential (MMP) fluorescence intensity", "setting": "PC-3 cells; PC-3, 24 hours", "value": "dose-dependent reduction"}, {"measurement": "p53 expression", "setting": "[4]", "value": "up-regulate"}, {"measurement": "caspase 8 activity", "setting": "caspase-8 in LNCaP cells", "value": "No significant fold-change"}, {"measurement": "IC50", "setting": "[5]; Homo sapiens, MTT, 24 hours, LNCaP, mean ± S.D.", "value": "12.2 ± 0.19", "unit": "µM"}, {"measurement": "folds more potent against LNCaP than normal prostate cells RWPE-1", "setting": "[5]; LNCaP vs RWPE-1", "value": 2.5, "unit": "folds"}, {"measurement": "selectivity index (SI) LNCaP", "setting": "[5]; mean IC50 RWPE-1/mean IC50 of LNCaP", "value": 2.49}]}]}
